Here are results for two molecules from patent US6610729B1, “Hydroxamic acid derivatives and medicinal utilization thereof” (Mitsubishi Pharma Corporation, priority 1998, dated 2003).

SMILES strings stand for the structures.

Data set [1] relates to release of TNF α from LPS treated human whole blood. Description: Inhibitory activity of TNF α release from LPS treated human whole blood (ELISA). It counts as cell-based. To be noted: LPS treated human whole blood diluted 4-fold, 24 hr, 37° C., TNF α by ELISA. The method, then:
The inhibitory effect of each compound (compounds of Examples 2, 6, 7, 10, 11, 37, 147, 231 and 245) on the release of TNF α from LPS treated human whole blood [see: Lymphokine Res 8, 141-146 (1989)] was investigated.
Human whole blood was diluted 4-fold with RPMI1640 medium supplemented with 10% FCS. The diluted blood was dispensed to a 96 multi-well plate by 100 μl and equilibrated under the conditions of 37° C., 5% CO2. LPS (2 μg/ml) was prepared with RPMI1640 medium supplemented with 10% FCS and a culture broth prepared by dissolving each compound (dissolved in dimethyl sulfoxide) in the LPS solution was added by 100 μl/well (final concentrated of dimethyl sulfoxide 0.1%), which was followed by incubation for 24 hr (37° C., 5% CO2). After the incubation, the reaction mixture was centrifuged (1,500 rpm, 5 min). The culture supernatant (40 μl/well) was collected, and TNF α amount in the supernatant was quantitatively measured by ELISA. The TNF α release inhibitory effect by each compound was calculated from the proportion of release TNF α amount of the compound addition group relitive to that of the compound non-addition group.
On the technique in general: In an ELISA, binding on a coated surface is turned into a signal by an enzyme label.

Data set [2] concerns release of TNF α from THP-1 cells. The experiment in a line: Inhibitory activity of TNF α release from THP-1 cells (LPS, ELISA). To be noted: Homo sapiens, 3 hr, 37° C., TNF α by ELISA. It counts as cell-based. The method, then:
The inhibitory effect of each compound (compounds of Examples 1, 2, 3, 6, 35, 39 and 44) on the release of TNF α from THP-1 cells which are monocyte cultured cells [see Nature 370, 218-220 (1994)] was investigated.
The THP-1 cells were suspended to a concentration of 1×10 ^6 cells/ml in RPMI1640 medium supplemented with 10% fetal calf serum (FCS) and dispensed by 100 μl. A 2 μg/ml LPS was prepared with RPMI1640 medium supplemented with 10% FCS. Each compound (dissolved in dimethyl sulfoxide) was diluted 500-fold with the LPS solution.
The diluted solutions of these compounds were added to the dispensed cell suspensions by 100 μl and allowed for 3 hr to react under the conditions of 37° C., 5% CO2. After the completion of the reaction, the reaction mixture was centrifuged and the culture supernatant was collected. The TNF α amount was quantitatively measured by ELISA (enzyme-linked immunosorbent assay). The TNF α release inhibitory effect by each compound was calculated from the proportion of released TNF α amount of the compound addition group relative to that of the compound non-addition group.

Data set [3] is described as follows: Solubility in saline (0.9% aqueous sodium chloride solution) at 25° C. In kind it is physicochemical. Conditions: saline or isotonic. How it is done:
The solubility of the Example compounds of the present invention in saline (0.9% aqueous sodium chloride solution) at 25° C. was measured.

As usually defined, the IC50 is the concentration at which inhibition is half-maximal. Read a low IC50 as higher potency. The solubility is the dissolved amount per volume that the medium holds. Turning to `CC(C)C[C@@H](C(=O)N[C@@H](Cc1ccc(OS(=O)(=O)[O-])cc1)C(=O)c1ccco1)C(CN1C(=O)c2ccccc2C1=O)C(=O)NO.[Na+]` (single isomer, unassigned) [Example 6, Sodium Salt of 3(R)-[1(S)-(2-furyl)carbonyl-2-[4-(hydroxysulfonyloxy)phenyl]]ethylcarbamoyl-5-methyl-2(R or S)-phthalimidomethylhexanohydroxamic Acid], the IC50 in data set [1] worked out at 1390 nM; in data set [2], 660 nM. In addition, in data set [3], the solubility is more than 20 mg/mL.

`CC(C)C[C@@H](C(=O)N[C@@H](Cc1ccccc1)C(=O)c1ccc(OCCN(C)C)cc1)C(CN1C(=O)c2ccccc2C1=O)C(=O)NO.Cl` (single isomer, unassigned) [Example 2, 3(R)-[1(S)-[4-(2-Dimethylaminoethoxy)benzoyl]-2-phenyl]ethylcarbamoyl-5-methyl-2(R or S)-phthalimidomethylhexanohydroxamic Acid Hydrochloride]: the figures for the IC50 in data set [1] and in data set [2] were 650 nM and 200 nM, respectively. Moreover, the solubility in data set [3] was more than 5 mg/mL.
